Source: US20230295235A1, “COMPOUNDS TARGETING ALPHA4-BETA7 INTEGRIN” (ZEALAND PHARMA A/S, priority 2020, published 2023)

What was measured:
[1] = target: T1, (α4β7-negative Th memory cells) (Homo sapiens, UniProt P05556+P13612); assay: Competition assay: inhibition of biotinylated rhVCAM-1-Fc binding to α4β7-negative Th memory cells in whole blood (FACS receptor occupancy); format: cell-based; conditions: single donor, 4 mM MnCl2, α4β7-negative Th memory cells, read-out: IC50, VCAM binding
T1 construct: endogenous in cells; host or cells: human whole blood
T1 sequence (P13612 34-1032): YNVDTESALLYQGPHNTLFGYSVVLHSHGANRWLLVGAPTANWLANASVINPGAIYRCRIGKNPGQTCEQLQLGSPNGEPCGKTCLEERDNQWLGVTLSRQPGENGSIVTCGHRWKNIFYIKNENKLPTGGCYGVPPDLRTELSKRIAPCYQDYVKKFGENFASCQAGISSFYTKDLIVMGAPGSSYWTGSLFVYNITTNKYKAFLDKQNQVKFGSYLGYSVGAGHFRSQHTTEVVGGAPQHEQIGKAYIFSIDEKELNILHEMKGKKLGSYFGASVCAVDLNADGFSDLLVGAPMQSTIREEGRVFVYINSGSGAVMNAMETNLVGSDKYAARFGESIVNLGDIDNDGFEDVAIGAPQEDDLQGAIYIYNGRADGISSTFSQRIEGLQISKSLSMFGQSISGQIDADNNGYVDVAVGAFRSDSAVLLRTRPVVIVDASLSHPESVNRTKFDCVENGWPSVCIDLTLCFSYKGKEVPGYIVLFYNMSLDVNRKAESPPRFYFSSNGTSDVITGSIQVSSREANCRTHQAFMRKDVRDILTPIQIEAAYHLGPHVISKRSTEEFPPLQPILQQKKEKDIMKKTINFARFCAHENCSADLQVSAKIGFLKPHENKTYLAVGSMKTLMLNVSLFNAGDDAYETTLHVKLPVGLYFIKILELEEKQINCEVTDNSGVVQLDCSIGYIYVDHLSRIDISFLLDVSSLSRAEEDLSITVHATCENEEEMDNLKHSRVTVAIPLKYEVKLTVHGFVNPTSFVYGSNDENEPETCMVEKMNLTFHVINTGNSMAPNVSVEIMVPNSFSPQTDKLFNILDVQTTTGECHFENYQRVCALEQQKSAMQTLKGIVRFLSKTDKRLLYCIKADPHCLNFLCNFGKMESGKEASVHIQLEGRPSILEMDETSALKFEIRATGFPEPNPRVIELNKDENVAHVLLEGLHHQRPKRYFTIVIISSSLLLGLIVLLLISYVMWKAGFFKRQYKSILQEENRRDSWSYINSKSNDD
T1 sequence (P05556 21-798): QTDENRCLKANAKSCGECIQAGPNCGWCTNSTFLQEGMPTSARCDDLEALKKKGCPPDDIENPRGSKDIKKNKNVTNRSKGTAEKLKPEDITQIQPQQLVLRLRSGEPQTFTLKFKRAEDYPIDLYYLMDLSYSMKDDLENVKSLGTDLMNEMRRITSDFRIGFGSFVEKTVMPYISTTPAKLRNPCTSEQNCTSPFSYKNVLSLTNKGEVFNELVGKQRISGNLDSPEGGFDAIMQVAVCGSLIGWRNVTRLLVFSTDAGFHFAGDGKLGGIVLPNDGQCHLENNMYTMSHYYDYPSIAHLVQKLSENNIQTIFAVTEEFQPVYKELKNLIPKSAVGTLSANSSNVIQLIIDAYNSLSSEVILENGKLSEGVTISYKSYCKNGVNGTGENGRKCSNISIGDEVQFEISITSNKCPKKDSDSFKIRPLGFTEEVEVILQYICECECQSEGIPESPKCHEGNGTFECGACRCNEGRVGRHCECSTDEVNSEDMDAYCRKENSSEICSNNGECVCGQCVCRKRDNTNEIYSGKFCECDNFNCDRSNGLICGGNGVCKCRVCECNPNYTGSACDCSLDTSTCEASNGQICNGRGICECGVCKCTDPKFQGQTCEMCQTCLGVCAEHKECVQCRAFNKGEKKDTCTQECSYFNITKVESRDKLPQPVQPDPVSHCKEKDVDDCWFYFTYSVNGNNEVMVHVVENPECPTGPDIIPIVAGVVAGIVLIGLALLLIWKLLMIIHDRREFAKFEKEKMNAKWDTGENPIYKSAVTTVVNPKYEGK
Experimental: The compound of Example 1 was used in competition assay on CD4+ integrin α4+β7-|o memory T cells.
Receptor occupancy in primary cells was determined by measuring the amount of biotinylated human recombinant MAdCAM-1-Fc or human recombinant VCAM-1-Fc bound to selected cell populations using flow cytometry. Human recombinant MAdCAM-1-Fc or human recombinant VCAM-1-Fc (R&D systems) were biotinylated using commercially available reagents and protocol (Pierce).
Whole blood was collected from human donors in sodium heparin tubes. A volume of 100 µL of blood was incubated with the compound of Example 1 and 4 mM MnCl2 for 1 hour at room temperature. Cells were washed twice with 1 mL of 1X Dulbecco’s phosphate buffered saline (DPBS) calcium magnesium free (CMF) (ThermoFisher Scientific) and resuspended in 100 µL of DPBS CMF. […]
Fluorescence-activated cell sorting (FACS) data was acquired by electronic gating on the basis of forward versus side scatter. […] Cell population were determined using the following markers: CD45+, CD3+, CD4+,CD45RO+, CD49d+, integrin β7, biotinylated ligands.
Compound receptor occupancy was defined as the decrease in the number of integrin β7+ or integrin β7-lo cells binding biotinylated rhMAdCAM-1 or rhVCAM-1, respectively. Receptor occupancy was calculated with the following equation: […]

[2] = tested on: integrin α4β7+ T helper memory lymphocytes in mesenteric lymph nodes; assay: In vivo T lymphocyte trafficking analysis in DSS mouse model of colitis
Experimental: Animal care: The animal care facility employed is accredited by the Canadian Council on Animal Care (CCAC). This study was approved by a certified Animal Care Committee and complied with CACC standards and regulations governing the use of animals for research. The animals were housed under standardized environmental conditions. A standard certified commercial rodent diet was provided ad libitum. Tap water was provided ad libitum at all times.
Dextran sulfate sodium (DSS) was administered to C57BL/6 female mice for five days through addition to their drinking water at 3%. Body weight and disease activity index (“DAI”) were measured on day 5 in order to distribute DSS-treated animals in uniform groups prior to dosing. DAI was scored based on the severity of three specific symptoms associated with colitis: 1- blood in stool (negative hemoccult, positive hemoccult, blood traces in stool visible, rectal bleeding); 2- stool consistency (normal, soft but still formed, very soft, diarrhea); 3- body weight loss.
From day 6 to day 9, the compound of Example 1 or the vehicle were administered orally daily at 5 mL/kg. […] Cell populations were then analyzed using FACSCanto cytometer and gating on CD4+, CD44^hi, CD45RB^low, α4β7+.
Statistical analysis was performed using GraphPad Prism. Differences among groups were evaluated by two-way ANOVA, with a 95% confidence interval. […]

CC(C)C[C@@H]1NC(=O)c2ccc(-c3ccc(N4CCN(C(=O)c5ccccc5-c5ccccc5C(=O)N5CCN(c6ccc(-c7ccc8cc7CNC(=O)[C@@H]7CCCN7[C@H](C(=O)NC(C)(C)C)[C@H](C)NC(=O)[C@H]([C@@H](C)O)NC(=O)[C@H](CC(=O)O)NC(=O)[C@H](CC(C)C)NC8=O)cc6)CC5)CC4)cc3)c(c2)CNC(=O)[C@@H]2CCCN2[C@H](C(=O)NC(C)(C)C)[C@H](C)NC(=O)[C@H]([C@@H](C)O)NC(=O)[C@H](CC(=O)O)NC1=O [Example 1, 2,2′-((S,S,S,S,S,S,1^2,8S,11S,14S,17S,18S)-((([1,1′-Biphenyl]-2,2′-Dicarbonyl)-Bis(Piperazine-4,1-Diyl))Bis(4,1-Phenylene))Bis(18-(Tert-Butylcarbamoyl)-14-((R)-1-Hydroxyethyl)-8-Isobutyl-17-Methyl-2,6,9,12,15-Pentaoxo-3,7,10,13,16-Pentaaza-1(2,1)-Pyrrolidina-5(1,3)-Benzenacyclooctadecaphane-5^6,11-Diyl))-Diacetic Acid]
IC50 [1]: ~600 nM | reduction in α4β7+ T cells in the mesenteric lymph nodes ([2]; 100 mg/kg orally daily day 6 to 9, DSS-treated C57BL/6 female mice, vs DSS alone): 60% | detection of integrin α4β7+ T helper memory lymphocytes in the mesenteric lymph nodes (MLN) ([2]; 10, 30 or 100 mg/kg orally daily day 6 to 9, DSS-treated mice): reduced the detection of integrin α4β7+ T helper memory lymphocytes
